Laboratory results reported in patent US12257247B2 (Monte Rosa Therapeutics AG, priority 2023, dated 2025).
Where two headings read alike, the source gives them in different places.

Molecular target: T1, VAV1 (Homo sapiens, UniProt P15498+Q96SW2)
T1 construct: A heterozygous VAV1 C-terminal HiBiT knock-in pool was generated at Monte Rosa Therapeutics from a clonal Jurkat cell; endogenous in cells; host or cells: Jurkat clone stably expressing LgBiT, homozygous GSPT1-G575N; heterozygous VAV1-HiBiT knock-in pool
Experiment: VAV1 degradation activity, VAV1-HiBiT knock-in Jurkat luminescence assay (Example A, Table 1)
Format: cell-based
Conditions: VAV1-HiBiT knock-in Jurkat cells, luminescence read at 6 and 24 hours; for Dmax: Jurkat
Procedure: Cells were plated at 10,000 cells per well using Multiflo (BioTek) or Multi Drop Combi (Thermo Fisher) in 384-well white solid bottom plates (Corning, 3570BC) in 25 ul volume in RPMI 1640 media (Thermo Fischer, 22400105) containing 10% FBS (Corning, 35-075-CV), 1% Penicillin/Streptomycin (ThermoFisher Scientific, 15140-122), and 1% Endurazine (Nano-Glo Endurazine Live Cell Substrate (Promega, N2571)). Cells were incubated for ˜16 hours at 37° C., 5% CO2. 25 nL of a compound at 10 μM were dosed into the plate using an Echo® 650 liquid handler (Labcyte). Cells were incubated at 37° C., 5% CO2 and signal was read at 6 and 24 hours after compound addition on a Pherastar FSX using “LUM plus” optic module.
Analysis was performed in Scinamic (Scinamic, Cambridge, MA). Luminescence response (R) was calculated by the formula: response=100*(S−N)/(P−N) where S is the signal of the well, N and P the mean negative and positive control values respectively of the same plate. The luminescence response was then fitted in Scinamic using a 3-parameter agonist logistic fit (hillslope=1, EC50>0, top/bottom unconstrained).

[1] = read-out: VAV1 DC50 (nM), class

Row | SMILES | Dmax (read-out: VAV1 Dmax %) [%] | Dmax (read-out: VAV1 Dmax %, class) [%] | DC50 (read-out: VAV1 DC50) [nM] | DC50 [1] [nM]
1 | O=C1CC[C@](F)(c2cccc(-c3ccc(N4CCCCC4=O)cc3)c2Cl)C(=O)N1 (single isomer, unassigned) [Compound 367] | 90.6 | > 90 | 706 | 100 to 1000
2 | O=C1CC[C@@](F)(c2cccc(-c3ccc(N4CCCCC4=O)cc3)c2Cl)C(=O)N1 (single isomer, unassigned) [Compound 368] | 98.5 | > 90 | 1.84 | ≤ 100
3 | CCc1cc(-c2cccc(C3CCC(=O)NC3=O)c2Cl)ccc1N (stereo not drawn) [Compound 101] | 96 | > 90 | 12.3 | ≤ 100
4 | Nc1nccn1Cc1ccc(-c2cccc(C3CCC(=O)NC3=O)c2Cl)cc1 (stereo not drawn) [Compound 102] | 84.1 | 60 to 90 | 240 | 100 to 1000
5 | O=C1CCC(c2cccc(-c3ccc(OCc4ccccn4)cc3)c2Cl)C(=O)N1 (stereo not drawn) [Compound 103] | 93.6 | > 90 | 45.4 | ≤ 100
6 | CN1CCN(CCOc2ccc(-c3cccc(C4CCC(=O)NC4=O)c3Cl)cc2)CC1 (stereo not drawn) [Compound 104] | 81.7 | 60 to 90 | 59.7 | ≤ 100
7 | Nc1ccc(-c2cccc(C3CCC(=O)NC3=O)c2Cl)cc1Cl (stereo not drawn) [Compound 105] | 97.7 | > 90 | 18.1 | ≤ 100
8 | O=C1CCC(c2cccc(-c3ccc(C4COC(=O)N4)cc3)c2Cl)C(=O)N1 (stereo not drawn) [Compound 106] | 14 | < 60 | ≥ 10000 | > 1000
9 | O=C1CCC(c2cccc(-c3ccc(C4COC(=O)N4)c(F)c3)c2Cl)C(=O)N1 (stereo not drawn) [Compound 107] | 27 | < 60 | ≥ 10000 | > 1000
10 | COc1ccc(-c2cccc(C3CCC(=O)NC3=O)c2Cl)cc1OC(F)F (stereo not drawn) [Compound 108] | 47.8 | < 60 | ≥ 10000 | > 1000
11 | O=C1CCC(c2cccc(-c3ccc(OC4CCOC4)cc3)c2Cl)C(=O)N1 (stereo not drawn) [Compound 109] | 66.4 | 60 to 90 | 678 | 100 to 1000
12 | Nc1ncn(Cc2ccc(-c3cccc(C4CCC(=O)NC4=O)c3Cl)cc2)n1 (stereo not drawn) [Compound 110] | 89.2 | 60 to 90 | 22.3 | ≤ 100
13 | Cc1nccn1Cc1ccc(-c2cccc(C3CCC(=O)NC3=O)c2Cl)cc1 (stereo not drawn) [Compound 111] | 87.8 | 60 to 90 | 49.2 | ≤ 100
14 | N#Cc1cc(-c2cccc(C3CCC(=O)NC3=O)c2Cl)ccc1O (stereo not drawn) [Compound 112] | 78.2 | 60 to 90 | 119 | 100 to 1000
15 | Nc1ccc(-c2cccc(C3CCC(=O)NC3=O)c2Cl)cc1OC(F)F (stereo not drawn) [Compound 113] | 64.6 | 60 to 90 | 482 | 100 to 1000
16 | CCNc1ccc(-c2cccc(C3CCC(=O)NC3=O)c2Cl)cc1 (stereo not drawn) [Compound 115] | 80.9 | 60 to 90 | 125 | 100 to 1000
17 | CNc1ccc(-c2cccc(C3CCC(=O)NC3=O)c2Cl)cc1C (stereo not drawn) [Compound 116] | 96 | > 90 | 22.3 | ≤ 100
18 | O=C1CCC(c2cccc(-c3ccc(OCCCO)cc3)c2Cl)C(=O)N1 (stereo not drawn) [Compound 117] | 72 | 60 to 90 | 353 | 100 to 1000
19 | Nc1ccnn1Cc1ccc(-c2cccc(C3CCC(=O)NC3=O)c2Cl)cc1 (stereo not drawn) [Compound 118] | 89.7 | 60 to 90 | 39.7 | ≤ 100
20 | O=C1CCC(c2cccc(-c3ccc(OCC4CCCO4)cc3)c2Cl)C(=O)N1 (stereo not drawn) [Compound 119] | 87.1 | 60 to 90 | 69.3 | ≤ 100
21 | O=C1CCC(c2cccc(-c3ccc(Cn4cccn4)cc3)c2Cl)C(=O)N1 (stereo not drawn) [Compound 120] | 94 | > 90 | 15.1 | ≤ 100
